Columns and labels:
Test in all cases: relative viability (nuclei count vs DMSO), 5 days (fraction); higher = more cells survive
NCI-H596 = system: NCI-H596
How it was run: (§1)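 Lung cancer cell lines were seeded in 1536-well plates and dosed by pin tool the next day, with either a single drug or a fixed anchor-drug dose combined with five library-drug doses (not always all listed) spaced in √10 steps. Five days later, one step fixed the cells and stained their nuclei (final 0.05% Triton X-100, 1% formaldehyde, 1 ug/ml Hoechst), and nuclei were counted on 4× images. Relative viability is the nuclei count in treated wells divided by the count in vehicle wells, and each value is the median of duplicate plates.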

HARA = system: HARA
How it was run: as §1

NCI-H2170 = system: NCI-H2170
How it was run: as §1

NCI-H23 = system: NCI-H23
How it was run: as §1

SW 1573 = system: SW 1573
How it was run: as §1

EKVX = system: EKVX
How it was run: as §1

NCI-H2405 = system: NCI-H2405
How it was run: as §1

H3255 = system: H3255
How it was run: as §1

NCI-H3122 = system: NCI-H3122
How it was run: as §1

HCC-15 = system: HCC-15
How it was run: as §1

SW 900 = system: SW 900
How it was run: as §1

LCLC-103H = system: LCLC-103H
How it was run: as §1

EPLC-272H = system: EPLC-272H
How it was run: as §1

RERF-LC-KJ = system: RERF-LC-KJ
How it was run: as §1

LK-2 = system: LK-2
How it was run: as §1

ChaGo-K-1 = system: ChaGo-K-1
How it was run: as §1

NCI-H1793 = system: NCI-H1793
How it was run: as §1

LC-2-ad = system: LC-2-ad
How it was run: as §1

NCI-H1648 = system: NCI-H1648
How it was run: as §1

EMC-BAC-2 = system: EMC-BAC-2
How it was run: as §1

HCC-827 = system: HCC-827
How it was run: as §1

NCI-H1944 = system: NCI-H1944
How it was run: as §1

NCI-H1792 = system: NCI-H1792
How it was run: as §1

For `C=C1C(=O)O[C@@H](CCCCCCCC)[C@@H]1C(=O)O` [C-75] + Nc1nc2[nH]cc(CCc3ccc(C(=O)N[C@@H](CCC(=O)O)C(=O)O)cc3)c2c(=O)[nH]1 [Pemetrexed] (partner 0.2 µM), the relative viability (NCI-H596; first compound 0.08 µM) was 0.503, the relative viability (NCI-H596; first compound 0.253 µM) was 0.432 and the relative viability (NCI-H596; first compound 0.8 µM) was 0.461. The relative viability (NCI-H596; first compound 2.53 µM) was 0.47, the relative viability (NCI-H596; first compound 8 µM) was 0.481 and the relative viability (HARA; first compound 0.08 µM) was 0.273. It also gave a relative viability (HARA; first compound 0.253 µM) of 0.254, a relative viability (HARA; first compound 0.8 µM) of 0.233 and a relative viability (HARA; first compound 2.53 µM) of 0.222. For the same compound, the relative viability (HARA; first compound 8 µM) was 0.299, the relative viability (NCI-H2170; first compound 0.08 µM) was 0.244 and the relative viability (NCI-H2170; first compound 0.253 µM) was 0.271. The relative viability (NCI-H2170; first compound 0.8 µM) was 0.286, the relative viability (NCI-H2170; first compound 2.53 µM) was 0.266 and the relative viability (NCI-H2170; first compound 8 µM) was 0.282. The relative viability (NCI-H23; first compound 0.08 µM) was 0.716, the relative viability (NCI-H23; first compound 0.253 µM) was 1.03 and the relative viability (NCI-H23; first compound 0.8 µM) was 0.546. It also gave a relative viability (NCI-H23; first compound 2.53 µM) of 0.406, a relative viability (NCI-H23; first compound 8 µM) of 0.443 and a relative viability (SW 1573; first compound 0.08 µM) of 0.947. It also gave a relative viability (SW 1573; first compound 0.253 µM) of 0.874, a relative viability (SW 1573; first compound 0.8 µM) of 0.728 and a relative viability (SW 1573; first compound 2.53 µM) of 0.684. It also gave a relative viability (SW 1573; first compound 8 µM) of 0.706, a relative viability (EKVX; first compound 0.08 µM) of 0.45 and a relative viability (EKVX; first compound 0.253 µM) of 0.491. The relative viability (EKVX; first compound 0.8 µM) was 0.366, the relative viability (EKVX; first compound 8 µM) was 0.358 and the relative viability (NCI-H2405; first compound 0.08 µM) was 1. For the same compound, the relative viability (NCI-H2405; first compound 0.253 µM) was 0.763, the relative viability (NCI-H2405; first compound 0.8 µM) was 1.12 and the relative viability (NCI-H2405; first compound 2.53 µM) was 0.605. The relative viability (NCI-H2405; first compound 8 µM) was 1.01, the relative viability (H3255; first compound 0.08 µM) was 0.588 and the relative viability (H3255; first compound 0.253 µM) was 0.561. It also gave a relative viability (H3255; first compound 0.8 µM) of 0.577, a relative viability (H3255; first compound 2.53 µM) of 0.525 and a relative viability (H3255; first compound 8 µM) of 0.627. It also gave a relative viability (NCI-H3122; first compound 0.08 µM) of 0.2, a relative viability (NCI-H3122; first compound 0.253 µM) of 0.208 and a relative viability (NCI-H3122; first compound 0.8 µM) of 0.181. For the same compound, the relative viability (NCI-H3122; first compound 2.53 µM) was 0.189, the relative viability (NCI-H3122; first compound 8 µM) was 0.185 and the relative viability (HCC-15; first compound 0.08 µM) was 0.246. The relative viability (HCC-15; first compound 0.253 µM) was 0.239, the relative viability (HCC-15; first compound 0.8 µM) was 0.203 and the relative viability (HCC-15; first compound 2.53 µM) was 0.208. It also gave a relative viability (HCC-15; first compound 8 µM) of 0.223, a relative viability (SW 900; first compound 0.08 µM) of 0.446 and a relative viability (SW 900; first compound 0.253 µM) of 0.462. For the same compound, the relative viability (SW 900; first compound 0.8 µM) was 0.479, the relative viability (SW 900; first compound 2.53 µM) was 0.301 and the relative viability (SW 900; first compound 8 µM) was 0.454. For the same compound, the relative viability (LCLC-103H; first compound 0.08 µM) was 0.464, the relative viability (LCLC-103H; first compound 0.253 µM) was 0.428 and the relative viability (LCLC-103H; first compound 0.8 µM) was 0.458. It also gave a relative viability (LCLC-103H; first compound 2.53 µM) of 0.326, a relative viability (LCLC-103H; first compound 8 µM) of 0.433 and a relative viability (EPLC-272H; first compound 0.08 µM) of 0.313. For the same compound, the relative viability (EPLC-272H; first compound 0.253 µM) was 0.267, the relative viability (EPLC-272H; first compound 0.8 µM) was 0.329 and the relative viability (EPLC-272H; first compound 2.53 µM) was 0.202. It also gave a relative viability (EPLC-272H; first compound 8 µM) of 0.24, a relative viability (RERF-LC-KJ; first compound 0.08 µM) of 0.456 and a relative viability (RERF-LC-KJ; first compound 0.253 µM) of 0.487. For the same compound, the relative viability (RERF-LC-KJ; first compound 0.8 µM) was 0.469, the relative viability (RERF-LC-KJ; first compound 2.53 µM) was 0.46 and the relative viability (RERF-LC-KJ; first compound 8 µM) was 0.461. The relative viability (LK-2; first compound 0.08 µM) was 0.214, the relative viability (LK-2; first compound 0.253 µM) was 0.301 and the relative viability (LK-2; first compound 0.8 µM) was 0.215. For the same compound, the relative viability (LK-2; first compound 2.53 µM) was 0.2, the relative viability (LK-2; first compound 8 µM) was 0.246 and the relative viability (ChaGo-K-1; first compound 0.08 µM) was 0.265. It also gave a relative viability (ChaGo-K-1; first compound 0.253 µM) of 0.259, a relative viability (ChaGo-K-1; first compound 0.8 µM) of 0.239 and a relative viability (ChaGo-K-1; first compound 2.53 µM) of 0.243. It also gave a relative viability (ChaGo-K-1; first compound 8 µM) of 0.254, a relative viability (NCI-H1793; first compound 0.08 µM) of 0.702 and a relative viability (NCI-H1793; first compound 0.253 µM) of 0.954. For the same compound, the relative viability (NCI-H1793; first compound 2.53 µM) was 0.59, the relative viability (NCI-H1793; first compound 8 µM) was 0.958 and the relative viability (LC-2-ad; first compound 0.08 µM) was 0.283. It also gave a relative viability (LC-2-ad; first compound 0.253 µM) of 0.265, a relative viability (LC-2-ad; first compound 0.8 µM) of 0.285 and a relative viability (LC-2-ad; first compound 2.53 µM) of 0.279. It also gave a relative viability (LC-2-ad; first compound 8 µM) of 0.271, a relative viability (NCI-H1648; first compound 0.08 µM) of 0.731 and a relative viability (NCI-H1648; first compound 0.253 µM) of 1.01. The relative viability (NCI-H1648; first compound 0.8 µM) was 0.681, the relative viability (NCI-H1648; first compound 8 µM) was 0.606 and the relative viability (EMC-BAC-2; first compound 0.08 µM) was 0.438. The relative viability (EMC-BAC-2; first compound 0.253 µM) was 0.432, the relative viability (EMC-BAC-2; first compound 0.8 µM) was 0.469 and the relative viability (EMC-BAC-2; first compound 2.53 µM) was 0.328. For the same compound, the relative viability (EMC-BAC-2; first compound 8 µM) was 0.426, the relative viability (HCC-827; first compound 0.253 µM) was 0.271 and the relative viability (HCC-827; first compound 0.8 µM) was 0.279. It also gave a relative viability (HCC-827; first compound 8 µM) of 0.287, a relative viability (NCI-H1944; first compound 0.08 µM) of 0.645 and a relative viability (NCI-H1944; first compound 0.253 µM) of 0.784. For the same compound, the relative viability (NCI-H1944; first compound 0.8 µM) was 0.509, the relative viability (NCI-H1944; first compound 2.53 µM) was 0.564 and the relative viability (NCI-H1944; first compound 8 µM) was 0.57. It also gave a relative viability (NCI-H1792; first compound 0.08 µM) of 0.816, a relative viability (NCI-H1792; first compound 0.253 µM) of 0.92 and a relative viability (NCI-H1792; first compound 0.8 µM) of 0.882. It also gave a relative viability (NCI-H1792; first compound 2.53 µM) of 0.481 and a relative viability (NCI-H1792; first compound 8 µM) of 0.678.

Reference: the supplement of paper PMC10307832
